Each structure is given as a SMILES string.

For one assay, the target named is T1, CETP (Homo sapiens, UniProt P11597).
T1 construct: from tissue; host or cells: human plasma
T1 sequence (P11597 18-493): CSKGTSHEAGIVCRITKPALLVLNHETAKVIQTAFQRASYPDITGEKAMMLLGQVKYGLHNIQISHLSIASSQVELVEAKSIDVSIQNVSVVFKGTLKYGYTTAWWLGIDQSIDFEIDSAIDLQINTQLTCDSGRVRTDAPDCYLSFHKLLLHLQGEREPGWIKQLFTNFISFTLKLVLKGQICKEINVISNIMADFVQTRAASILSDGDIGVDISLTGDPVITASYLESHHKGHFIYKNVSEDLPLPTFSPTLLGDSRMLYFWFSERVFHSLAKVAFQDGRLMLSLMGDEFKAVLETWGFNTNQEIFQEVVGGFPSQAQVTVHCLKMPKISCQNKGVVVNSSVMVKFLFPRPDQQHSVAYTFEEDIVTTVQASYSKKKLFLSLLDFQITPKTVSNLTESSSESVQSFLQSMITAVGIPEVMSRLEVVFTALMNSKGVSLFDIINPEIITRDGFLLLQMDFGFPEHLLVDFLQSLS
The experiment in a line: Measurement of CETP inhibitory action in human plasma (Roar Biomedical CETP Activity kit, fluorescence). It is filed as biochemical. Conditions: human plasma incubated with compound at 37° C. for 4 hours; calculated from CETP inhibitory rate at two or more concentrations; read-out: IC50 (concentration inhibiting the CETP activity by 50%). As to the method: A solution obtained by dissolving an exemplary compound or a comparative compound in polyethylene glycol/N-methyl-2-pyrrolidone (vol/vol=1/1) was added to human plasma, and the mixture was incubated in an incubator at 37° C. for 4 hours. The CETP activity in this plasma was measured with Cholesteryl Ester Transfer Protein Activity kit (Roar Biomedical, catalog No.: RB-CETP). Specifically, to each well of a 96-well plate, 95 μL of a buffer (10 mM Tris, 150 mM NaCl, 2 mM EDTA, pH 7.4), 2 μL of Donor particle and 2 μL of Acceptor particle were added, 1 μL of the human plasma after the incubation was added to the mixture, and the mixture was incubated in an incubator at 37° C. for 2 hours. After completion of the incubation, fluorescence intensity (FLU) was measured with a fluorescence plate reader (excitation wavelength: 465 nm, emission wavelength: 535 nm). In accordance with the following equation 1, the CETP activity (% of control) was obtained for the compounds of the examples and the comparative compounds for two or more concentrations. CETP activity (% of control)=(Sample FLU−Blank FLU)×100/(Control FLU−Blank FLU) (Equation 1) In the equation, the terms have the following meanings: Blank FLU: Fluorescence intensity of sample not added with plasma Control FLU: Fluorescence intensity of plasma not added with solution of compound Sample FLU: Fluorescence intensity of plasma added with solution of compound
A value obtained by subtracting the value of the CETP activity from 100 was defined as the CETP inhibitory rate of each exemplary compound, and a concentration inhibiting the CETP activity by 50% (IC50) was calculated for each exemplary compound from the values of the CETP inhibitory rate at two or more concentrations. As the comparative compound, the following compound was used, which is the pyrimidine compound having a benzyl(heterocyclylmethyl)amine structure described in Example 66 of Patent document 10 (International Patent Publication WO2006/073973).
`CCN(CC1CCCC1)c1nc2ccccc2cc1CN(Cc1cc(C(F)(F)F)cc(C(F)(F)F)c1)c1ncccn1` [Comparative Compound 1, reference compound]: the potency estimated from few doses was 20000 nM.
In the case of `CCN(CC1CCCC1)c1ccc(OC)nc1CN(c1ncc(OCC[S+](C)[O-])cn1)C(C)c1cc(C(F)(F)F)cc(C(F)(F)F)c1` (centres unmarked) [Example 2, N-{1-[3,5-bis(trifluoromethyl)phenyl]ethyl}-N-({3-[(cyclopentylmethyl)(ethyl)amino]-6-methoxypyridin-2-yl}methyl)-5-[2-(methylsulfinyl)ethoxy]pyrimidin-2-amine], the potency estimated from few doses is 150 nM.
Turning to `CCN(CC1CCCC1)c1ccc(OC)nc1CN(c1ncc(OCCS(C)(=O)=O)cn1)C(C)c1cc(C(F)(F)F)cc(C(F)(F)F)c1` (centres unmarked) [Example 3, N-{1-[3,5-bis(trifluoromethyl)phenyl]ethyl}-N-({3-[(cyclopentylmethyl)(ethyl)amino]-6-methoxypyridin-2-yl}methyl)-5-[2-(methylsulfonyl)ethoxy]pyrimidin-2-amine], the potency estimated from few doses was 150 nM.
Same read-out and setting: as for `CCN(CC1CCCC1)c1nc2c(cc1CN(c1ncc(OCCS(C)(=O)=O)cn1)C(C)c1cc(C(F)(F)F)cc(C(F)(F)F)c1)c(C)nn2C` (centres unmarked) [Example 5, 5-[({1-[3,5-bis(trifluoromethyl)phenyl]ethyl}{5-[2-(methylsulfonyl)ethoxy]pyrimidin-2-yl}amino)methyl]-N-(cyclopentylmethyl)-N-ethyl-1,3-dimethyl-1H-pyrazolo[3,4-b]pyridin-6-amine], the figure is 35 nM.
Same read-out and setting: as for `CCN(CC1CCCC1)c1nc2ccccc2cc1CN(c1ncc(OCCS(C)(=O)=O)cn1)C(C)c1cc(C(F)(F)F)cc(C(F)(F)F)c1` (centres unmarked) [Example 7, 3-[({1-[3,5-bis(trifluoromethyl)phenyl]ethyl}{5-[2-(methylsulfonyl)ethoxy]pyrimidin-2-yl}amino)methyl]-N-(cyclopentylmethyl)-N-ethylquinolin-2-amine], the figure is 50 nM.
On to `CCN(CC1CCCC1)c1nc2ccc(OC)cc2cc1CN(c1ncc(OCCS(C)(=O)=O)cn1)C(C)c1cc(C(F)(F)F)cc(C(F)(F)F)c1` (centres unmarked) [Example 9, 3-[({1-[3,5-bis(trifluoromethyl)phenyl]ethyl}{5-[2-(methylsulfonyl)ethoxy]pyrimidin-2-yl}amino)methyl]-N-(cyclopentylmethyl)-N-ethyl-6-methoxyquinolin-2-amine], for which the potency estimated from few doses was 500 nM.
Still for that read-out and setting: in the case of `CCN(CC1CCCC1)c1nc2ccc(C(F)(F)F)cc2cc1CN(c1ncc(OCCS(C)(=O)=O)cn1)C(C)c1cc(C(F)(F)F)cc(C(F)(F)F)c1` (centres unmarked) [Example 11, 3-[({1-[3,5-bis(trifluoromethyl)phenyl]ethyl}{5-[2-(methylsulfonyl)ethoxy]pyrimidin-2-yl}amino)methyl]-N-(cyclopentylmethyl)-N-ethyl-6-trifluoromethylquinolin-2-amine] it was 80 nM; in that of `CCN(CC1CCCC1)c1nc2ccc(C)cc2cc1CN(c1ncc(OCCS(C)(=O)=O)cn1)C(C)c1cc(C(F)(F)F)cc(C(F)(F)F)c1` (centres unmarked) [Example 13, 3-[({1-[3,5-bis(trifluoromethyl)phenyl]ethyl}{5-[2-(methylsulfonyl)ethoxy]pyrimidin-2-yl}amino)methyl]-N-(cyclopentylmethyl)-N-ethyl-6-methylquinolin-2-amine], 80 nM; in that of `CCN(CC1CCCC1)c1nc(C)ccc1CN(c1ncc(OCCS(C)(=O)=O)cn1)C(C)c1cc(C(F)(F)F)cc(C(F)(F)F)c1` (centres unmarked) [Example 15, N-{1-[3,5-bis(trifluoromethyl)phenyl]ethyl}-N-({2-[(cyclopentylmethyl)(ethyl)amino]-6-methylpyridin-3-yl}methyl)-5-[2-(methylsulfonyl)ethoxy]pyrimidin-2-amine], 200 nM.
As to `CCc1ccc(CN(c2ncc(OCCS(C)(=O)=O)cn2)C(C)c2cc(C(F)(F)F)cc(C(F)(F)F)c2)c(N(CC)CC2CCCC2)n1` (centres unmarked) [Example 17, N-{1-[3,5-bis(trifluoromethyl)phenyl]ethyl}-N-({2-[(cyclopentylmethyl)(ethyl)amino]-6-ethylpyridin-3-yl}methyl)-5-[2-(methylsulfonyl)ethoxy]pyrimidin-2-amine], the potency estimated from few doses was 45 nM.
As for `CCN(CC1CCCC1)c1nc(C)c(C)cc1CN(c1ncc(OCCS(C)(=O)=O)cn1)C(C)c1cc(C(F)(F)F)cc(C(F)(F)F)c1` (centres unmarked) [Example 19, N-{1-[3,5-bis(trifluoromethyl)phenyl]ethyl}-N-({2-[(cyclopentylmethyl)(ethyl)amino]-5,6-dimethylpyridin-3-yl}methyl)-5-[2-(methylsulfonyl)ethoxy]pyrimidin-2-amine], the potency estimated from few doses is 30 nM.
Same read-out and setting: as for `CCN(CC1CCCC1)c1nc2c(cc1CN(c1ncc(OCCS(C)(=O)=O)cn1)C(C)c1cc(C#N)cc(C(F)(F)F)c1)c(C)nn2C` (centres unmarked) [Example 23, 3-{1-[({6-[(cyclopentylmethyl)(ethyl)amino]-1,3-dimethyl-1H-pyrazolo[3,4-b]pyridin-5-yl}methyl){5-[2-(methylsulfonyl)ethoxy]pyrimidin-2-yl}amino]ethyl}-5-(trifluoromethyl)benzonitrile], the figure is 150 nM.

The subject of the next assay is CETP. The experiment in a line: Measurement of CETP inhibitory activity in blood of hamster (single oral administration). The format is in vivo. Conditions: hamster plasma, single oral dose 30 mg/kg in olive oil, blood collected 2 hours after administration, n=3; control 33.7 ± 2.3. As to the method:
1: Labeling of Donor Lipoprotein (HDL3 Fraction) with ^3H-Cholesterol and Preparation of Acceptor Lipoprotein (LDL Fraction)
The donor lipoprotein was prepared by adding KBr to plasma of healthy human subject (50 mL) to adjust the specific gravity (d) of the plasma to be 1.125, centrifuging the mixture at 100,000 rpm and 4° C. for 2.5 hours (Optima Max-E TLA-100.2 rotor, Beckman), and collecting the lower layer (HDL3 fraction, d>1.125). The resulting fraction was dialyzed against PBS (10 mM Na2HPO4, 10 mM NaH2PO4, 0.15 M NaCl, 1 mM EDTA-2Na, pH 7.4). Then, a 95% ethanol solution of 9.25 MBq 1, 2-3H(N)cholesterol (NEN™, Life Science Products, USA) was added to the sample with stirring, and the mixture was incubated at 37° C. for 18 hours. […]
To 10 μL of the hamster plasma, 5 μL of ^3H-labeled HDL3 and […] of LDL were added, and the final volume of the mixture was made 600 μL with a TBS solution (10 mM Tris, 0.15 M NaCl, pH 7.4). […] Then, radioactivity of 3H was measured with a liquid scintillation counter (TRI-CARB 2700 TR, Packard). […] CETP activity (%)=(Blank dpm−Sample dpm)×100/(Blank dpm) (Equation 2) In the equation, the terms have the following meanings: Blank dpm: Value of 3H radioactivity of sample not added with plasma Sample dpm: Value of ^3H radioactivity of sample added with compound or control sample.
As for `CCN(CC1CCCC1)c1nc2ccccc2cc1CN(Cc1cc(C(F)(F)F)cc(C(F)(F)F)c1)c1ncccn1` [Comparative Compound 1, reference compound], the “Average CETP activity ± standard deviation (%)” value was 30.3 ± 4.2%.
For `CCN(CC1CCCC1)c1nc2c(cc1CN(c1ncc(OCCS(C)(=O)=O)cn1)C(C)c1cc(C(F)(F)F)cc(C(F)(F)F)c1)c(C)nn2C` (centres unmarked) [Example 5, 5-[({1-[3,5-bis(trifluoromethyl)phenyl]ethyl}{5-[2-(methylsulfonyl)ethoxy]pyrimidin-2-yl}amino)methyl]-N-(cyclopentylmethyl)-N-ethyl-1,3-dimethyl-1H-pyrazolo[3,4-b]pyridin-6-amine], the “Average CETP activity ± standard deviation (%)” value is on record as 3.7 ± 3.2%.

The values are drawn from US7790737B2, “Substituted pyrimidine compounds and their utility as CETP inhibitors” (Kowa Company, Ltd., priority 2007, dated 2010).
